Test results taken from ChEMBL document CHEMBL4665541, “Search for new therapeutic options for the uncommon pathogen Mycobacterium chimaera: an open drug discovery approach” (Lancet Microbe, 2021).

Experiments:
Assay type in all cases: functional, organism-based
Set-up in all cases: conc 20 uM
[1] = tested on: Mycobacteroides abscessus; assay: (§1) Inhibition of mycobacterial growth using the resazurin microtitre cell viability assay (REMA), compounds at final concentration of 20 µM (2% v/v DMSO). Hits were classed as compounds that inhibited bacterial growth by 70% or more compared to drug-free controls.; details: ATCC19977
[2] = tested on: Mycobacterium intracellulare subsp. chimaera; assay: as §1; details: NCTC13781
[3] = tested on: Mycobacterium tuberculosis; assay: as §1; details: H37Rv

Row | Substance | Survival [1] | Survival [2] | Survival [3]
1 | MMV676599 | 115% | 102% | 88.2%
2 | MMV687812 | 26.9% | 41% | 26%
3 | MMV688978 | 106% | 105% | 5.27%
4 | MMV021375 | 111% | 93.8% | 89.6%
5 | MMV688352 | 107% | 103% | 89.6%
6 | MMV690028 | 120% | 92.3% | 95.8%
7 | MMV676057 | 109% | 110% | 109%
8 | MMV020710 | 123% | 95.7% | 86.9%
9 | MMV011691 | 104% | 103% | 86.2%
10 | MMV062221 | 114% | 112% | 103%
11 | MMV676604 | 119% | 104% | 95%
12 | MMV687246 | 119% | 110% | 90.9%
13 | MMV688416 | 103% | 94.7% | 99.5%
14 | MMV1037162 | 97.5% | 107% | 107%
15 | MMV688273 | 100% | 106% | 97.8%
16 | MMV688762 | 121% | 96.2% | 89%
17 | MMV676379 | 116% | 87.9% | 98%
18 | MMV634140 | 110% | 84% | 81%
19 | MMV019807 | 116% | 118% | 97.4%
20 | MMV002529 | 120% | 99.8% | 92%
21 | MMV676881 | 99.4% | 101% | 98.9%
22 | MMV676524 | 114% | 97% | 23.4%

Row | Substance | Survival [1] | Survival [2] | Survival [3]
23 | MMV687730 | 18.8% | 87.3% | 71.2%
24 | MMV024311 | 96.6% | 106% | 74.4%
25 | MMV026356 | 107% | 89.7% | 101%
26 | MMV687776 | 124% | 99.3% | 90.5%
27 | MMV676603 | 112% | 101% | 38.4%
28 | MMV676386 | 107% | 90.1% | 24%
29 | MMV688888 | 95.5% | 37.8% | 23.3%
30 | MMV688547 | 116% | 102% | 95.2%
31 | MMV689255 | 124% | 109% | 89.2%
32 | MMV688557 | 101% | 101% | 95.7%
33 | MMV146306 | 107% | 96.2% | 96.1%
34 | MMV688754 | 109% | 103% | 92.9%
35 | MMV688271 | 108% | 3.73% | 1.1%
36 | MMV688371 | 119% | 107% | 111%
37 | MMV392832 | 106% | 93.8% | 75.4%
38 | MMV676395 | 111% | -0.21% | 2.49%
39 | MMV676472 | 115% | 92.2% | 120%
40 | MMV688768 | 109% | 93.9% | 87%
41 | MMV688270 | 101% | 98.1% | 83%
42 | MMV032995 | 111% | 98.4% | 89.1%
43 | MMV090930 | 110% | 84.6% | 38.6%
44 | MMV020520 | 125% | 113% | 104%

Row | Substance | Survival [1] | Survival [2] | Survival [3]
45 | MMV002817 | 118% | 100% | 90.6%
46 | MMV689028 | 121% | 127% | 121%
47 | MMV688704 | 106% | 98.7% | 92.8%
48 | MMV688845 | 24.1% | 1.95% | 6.47%
49 | MMV689029 | 119% | 93.5% | 86.9%
50 | MMV687138 | 102% | 104% | 56.3%
51 | MMV688774 | 107% | 79.3% | 100%
52 | MMV676191 | 99.5% | 105% | 100%
53 | MMV676358 | 114% | 92.3% | 98.4%
54 | MMV1030799 | 121% | 99.7% | 18.8%
55 | MMV000016 | 99.9% | 110% | 127%
56 | MMV687794 | 109% | 99.9% | 90.9%
57 | MMV053220 | 115% | 97.9% | 90.6%
58 | MMV687273 | 111% | 110% | 31.5%
59 | MMV688958 | 109% | 97.7% | 91.1%
60 | MMV676398 | 111% | 99.3% | 92%
61 | MMV009135 | 101% | 104% | 93.6%
62 | MMV687189 | 104% | 98.5% | 58.1%
63 | MMV637953 | 145% | 117% | 102%
64 | MMV688178 | 107% | 97.1% | 103%
65 | MMV687765 | 116% | 59% | 26.4%
66 | MMV687254 | 113% | 107% | 106%

Row | Substance | Survival [1] | Survival [2] | Survival [3]
67 | MMV019721 | 121% | 114% | 104%
68 | MMV676470 | 115% | 100% | 90.7%
69 | MMV688941 | 120% | 104% | 69.8%
70 | MMV659010 | 112% | 91.7% | 85.6%
71 | MMV676478 | 111% | 96.5% | 44.5%
72 | MMV031011 | 109% | 89.4% | 99.4%
73 | MMV676474 | 99% | 88.6% | 60.1%
74 | MMV393144 | 103% | 85.6% | 92.6%
75 | MMV688552 | 107% | 103% | 81%
76 | MMV675993 | 102% | 109% | 92.9%
77 | MMV687146 | 17.2% | 4.5% | 77.5%
78 | MMV020591 | 113% | 112% | 106%
79 | MMV676461 | 114% | 104% | 78.3%
80 | MMV021660 | 102% | 107% | 67.5%
81 | MMV688470 | 106% | 95.7% | 94.8%
82 | MMV676380 | 102% | 86.9% | 97%
83 | MMV003152 | 111% | 96.7% | 92.7%
84 | MMV688125 | 114% | 107% | 13.8%
85 | MMV023233 | 106% | 90.8% | 89.1%
86 | MMV010545 | 111% | 86.4% | 91.4%
87 | MMV688466 | 115% | 106% | 93.2%
88 | MMV688939 | 97.6% | 95.4% | 48.9%

Row | Substance | Survival [1] | Survival [2] | Survival [3]
89 | MMV676480 | 104% | 104% | 106%
90 | MMV676539 | 99.7% | 95.1% | 29.7%
91 | MMV024937 | 103% | 111% | 88.4%
92 | MMV688411 | 114% | 89.9% | 90%
93 | MMV658993 | 101% | 100% | 83.9%
94 | MMV020537 | 105% | 62.7% | 94.1%
95 | MMV1019989 | 99% | 107% | 105%
96 | MMV676477 | 111% | 73.1% | 4.54%
97 | MMV689758 | 19.8% | 1.81% | 5.64%
98 | MMV023388 | 90.4% | 98% | 99.3%
99 | MMV687145 | 108% | 130% | 42.6%
100 | MMV688994 | 101% | 80% | 13.7%
101 | MMV047015 | 111% | 85.3% | 52.2%
102 | MMV687813 | 102% | 34.4% | 5.59%
103 | MMV102872 | 114% | 97.7% | 18.3%
104 | MMV676063 | 105% | 112% | 91%
105 | MMV687803 | 24.5% | 10.8% | 17.4%
106 | MMV676159 | 106% | 100% | 99.4%
107 | MMV676350 | 116% | 105% | 94.9%
108 | MMV676509 | 113% | 89.8% | 85.9%
109 | MMV687703 | 105% | 3.71% | 4.55%
